Assays:
[1] = Oral bioavailability in Beagle dog; type: ADME, organism-based, Canis lupus familiaris; details: in vivo
[2] = Volume of distribution at steady state in Beagle dog; type: ADME, organism-based, Canis lupus familiaris; details: in vivo, read-out: Vdss
[3] = Volume of distribution at steady state in rat; type: ADME, organism-based; details: in vivo, read-out: Vdss
[4] = Oral bioavailability in rat; type: ADME, organism-based; details: in vivo

Row | bioavailability [1] [%] | Vd [2] [L/kg] | Vd [3] [L/kg] | bioavailability [4] [%] | Structure (SMILES)
1 | 71 | 1.82 | 5.42 | 11 | CC(C)NC(=O)[C@H]1CC[C@@H](n2/c(=N/C(=O)c3cc(F)cc(F)c3)[nH]c3ccc(CN4CCC(C(C)(C)O)CC4)cc32)CC1
2 | 52 | 1.58 | 6.4 | 20 | CC(C)NC(=O)[C@H]1CC[C@@H](n2/c(=N/C(=O)c3ccc(F)cc3)[nH]c3ccc(CN4CCC(C(C)(C)O)CC4)cc32)CC1

Reference: ChEMBL document CHEMBL2169770, “The discovery and optimization of a novel class of potent, selective, and orally bioavailable anaplastic lymphoma kinase (ALK) inhibitors with potential utility for the treatment of cancer” (J Med Chem, 2012)
